US8178522B2, “Thiazoles” (Hoffmann-La Roche Inc., priority 2009, dated 2012)
Like-named read-outs stand apart in the source and are kept apart here.

Biological target: T1, GABA A α5 (α5β3γ2) (Homo sapiens, UniProt P18507+P31644)
T1 construct: expressed in transfected cells; host or cells: HEK293, transiently transfected; membrane preparation
Experiment: [3H]flumazenil competition binding, human GABA A α5 receptor
How it was run: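 Competition with [3H]flumazenil at membranes from HEK293 cells transiently expressing human α5β3γ2, in Krebs-tris buffer pH 7.5. Equilibrium 1 hour at 4° C, filtration with ice-cold 50 mM Tris wash, scintillation counting. Ki values are means of two determinations.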

[1] = human receptor α5β3γ2 transiently transfected in HEK293 cells, competition for [3H]flumazenil 0.5 nM, 1 hour at 4° C., means of two determinations, read-out: hKi GABA A α5

SMILES	Ki [1] [nM]	Ki [nM]
Cc1nc(CCc2c(-c3ccc(F)cn3)noc2C)sc1C(=O)NCCO [Example 36, 2-{2-[3-(5-Fluoro-pyridin-2-yl)-5-methyl-isoxazol-4-yl]-ethyl}-4-methyl-thiazole-5-carboxylic acid (2-hydroxy-ethyl)-amide]	14	
Cc1onc(-c2ccc(F)cn2)c1CCc1ncc(C(=O)NC2CC2)s1 [Example 42, 2-{2-[3-(5-Fluoro-pyridin-2-yl)-5-methyl-isoxazol-4-yl]-ethyl}-thiazole-5-carboxylic acid cyclopropylamide]		12.7
CNC(=O)c1sc(CCc2c(-c3ccccn3)noc2C)nc1C [Example 16, 4-Methyl-2-[2-(5-methyl-3-pyridin-2-yl-isoxazol-4-yl)-ethyl]-thiazole-5-carboxylic acid methylamide]	21.3	
CNC(=O)c1sc(CCc2c(-c3ccc(F)cn3)noc2C)nc1C [Example 39, 2-{2-[3-(5-Fluoro-pyridin-2-yl)-5-methyl-isoxazol-4-yl]-ethyl}-4-methyl-thiazole-5-carboxylic acid methylamide]	25.3	
CCCCc1noc(C)c1CCc1nc(C)c(C(=O)NC(C)CO)s1 (centres unmarked) [Example 50, 2-[2-(3-Butyl-5-methyl-isoxazol-4-yl)-ethyl]-4-methyl-thiazole-5-carboxylic acid (2-hydroxy-1-methyl-ethyl)-amide]	16.8	
Cc1onc(-c2ccc(F)cn2)c1/C=C/c1ncc(C(=O)N2CCS(=O)(=O)CC2)s1 [Example 83, (1,1-Dioxothiomorpholin-4-yl)-(2-{(E)-2-[3-(5-fluoro-pyridin-2-yl)-5-methyl-isoxazol-4-yl]-vinyl}-thiazol-5-yl)-methanone]	27.4	
Cc1nc(CCc2c(-c3ccccn3)noc2C)sc1C(=O)NCC1CC1 [Example 12, 4-Methyl-2-[2-(5-methyl-3-pyridin-2-yl-isoxazol-4-yl)-ethyl]-thiazole-5-carboxylic acid cyclopropylmethyl-amide]	13.4	
Cc1onc(-c2ccccc2)c1/C=C/c1ncc(C(=O)NC2CCOC2)s1 (stereo in doubt) [Example 64, (S)-2-[(E)-2-(5-Methyl-3-phenyl-isoxazol-4-yl)-vinyl]-thiazole-5-carboxylic acid (tetra-hydro-furan-3-yl)-amide]	1.7	
Cc1nc(/C=C/c2conc2-c2ccc(F)cn2)sc1C(=O)NCC1CC1 [Example 92, 2-{(E)-2-[3-(5-Fluoro-pyridin-2-yl)-isoxazol-4-yl]-vinyl}-4-methyl-thiazole-5-carboxylic acid cyclopropylmethyl-amide]	40.4	
COC(=O)c1sc(CCc2c(-c3ccc(F)cn3)noc2C)nc1C [Example 30, 2-{2-[3-(5-Fluoro-pyridin-2-yl)-5-methyl-isoxazol-4-yl]-ethyl}-4-methyl-thiazole-5-carboxylic acid methyl ester]	23.6	
Cc1nc(/C=C/c2c(-c3ccc(F)cn3)noc2C)sc1C(=O)NC(C)(C)CO [Example 74, 2-{(E)-2-[3-(5-Fluoro-pyridin-2-yl)-5-methyl-isoxazol-4-yl]-vinyl}-4-methyl-thiazole-5-carboxylic acid (2-hydroxy-1,1-dimethyl-ethyl)-amide]	8.4	
CCCCc1noc(C)c1/C=C/c1nc(C)c(C(=O)O)s1 [Example 99, 2-[(E)-2-(3-Butyl-5-methyl-isoxazol-4-yl)-vinyl]-4-methyl-thiazole-5-carboxylic acid]	27.6	
Cc1nc(CCc2c(-c3ccccc3)noc2C)sc1C(=O)NCC(C)(C)O [Example 4, 4-Methyl-2-[2-(5-methyl-3-phenyl-isoxazol-4-yl)-ethyl]-thiazole-5-carboxylic acid (2-hydroxy-2-methyl-propyl)-amide]	37.8	
Cc1nc(/C=C/c2c(-c3ccc(F)cn3)noc2C)sc1C(=O)NC(C)C [Example 71, 2-{(E)-2-[3-(5-Fluoro-pyridin-2-yl)-5-methyl-isoxazol-4-yl]-vinyl}-4-methyl-thiazole-5-carboxylic acid isopropylamide]	1.5	
Cc1onc(-c2ccccc2)c1CNc1ncc(C(=O)NC(C)C)s1 [Example 135, 2-[(5-Methyl-3-phenyl-isoxazol-4-ylmethyl)-amino]-thiazole-5-carboxylic acid isoprop-ylamide]	9	
CCNC(=O)c1cnc(CCc2c(-c3ccc(F)cn3)noc2C)s1 [Example 46, 2-{2-[3-(5-Fluoro-pyridin-2-yl)-5-methyl-isoxazol-4-yl]-ethyl}-thiazole-5-carboxylic acid ethylamide]	18.1	
CCCCc1noc(C)c1CCc1nc(C)c(C(=O)N[C@@H](C)CO)s1 [Example 54, 2-[2-(3-Butyl-5-methyl-isoxazol-4-yl)-ethyl]-4-methyl-thiazole-5-carboxylic acid ((S)-2-hydroxy-1-methyl-ethyl)-amide]	15.9	
CCCCc1noc(C)c1/C=C/c1nc(C)c(C(N)=O)s1 [Example 100, 2-[(E)-2-(3-Butyl-5-methyl-isoxazol-4-yl)-vinyl]-4-methyl-thiazole-5-carboxylic acid amide]	2	
Cc1nc(/C=C/c2c(-c3ccccc3)noc2C)sc1C(=O)NCCO [Example 70, 4-Methyl-2-[(E)-2-(5-methyl-3-phenyl-isoxazol-4-yl)-vinyl]-thiazole-5-carboxylic acid (2-hydroxy-ethyl)-amide]	0.5	
CCCCc1noc(C)c1/C=C/c1nc(C)c(C(=O)N2CC(OC)C2)s1 [Example 109, {2-[(E)-2-(3-Butyl-5-methyl-isoxazol-4-yl)-vinyl]-4-methyl-thiazol-5-yl}-(3-methoxy-azetidin-1-yl)-methanone]	33.2	
Cc1onc(-c2ccccc2)c1COc1ncc(C(=O)NC(C)(C)CO)s1 [Example 131, 2-(5-Methyl-3-phenyl-isoxazol-4-ylmethoxy)-thiazole-5-carboxylic acid (2-hydroxy-1,1-dimethyl-ethyl)-amide]	12.7	
CCCCc1noc(C)c1CCc1ncc(C(=O)N[C@@H](C)CO)s1 [Example 61, 2-[2-(3-Butyl-5-methyl-isoxazol-4-yl)-ethyl]-thiazole-5-carboxylic acid ((S)-2-hydroxy-1-methyl-ethyl)-amide]	43.6	
CCCCc1noc(C)c1/C=C/c1nc(C)c(C(=O)NC(CC)CO)s1 (racemic) [Example 104, Rac-2-[(E)-2-(3-Butyl-5-methyl-isoxazol-4-yl)-vinyl]-4-methyl-thiazole-5-carboxylic acid (1-hydroxymethyl-propyl)-amide]	3.1	
CCCCc1noc(C)c1/C=C/c1ncc(C(=O)NCCO)s1 [Example 125, 2-[(E)-2-(3-Butyl-5-methyl-isoxazol-4-yl)-vinyl]-thiazole-5-carboxylic acid (2-hydroxy-ethyl)-amide]	6.6	
CCCCc1noc(C)c1/C=C/c1nc(C)c(C(=O)NC(C)C)s1 [Example 93, 2-[(E)-2-(3-Butyl-5-methyl-isoxazol-4-yl)-vinyl]-4-methyl-thiazole-5-carboxylic acid isopropylamide]	1.9	
Cc1onc(-c2ccccc2)c1COc1ncc(C(=O)NCCO)s1 [Example 130, 2-(5-Methyl-3-phenyl-isoxazol-4-ylmethoxy)-thiazole-5-carboxylic acid (2-hydroxy-ethyl)-amide]	5.4	
